Test results reported in US20240366589A1, “NHE3-BINDING COMPOUNDS AND METHODS FOR INHIBITING PHOSPHATE TRANSPORT” (Ardelyx, Inc., priority 2013, published 2024).

Tests used:
[1] = tested on: phosphorus and calcium levels in the urine of rats; assay: Urinary excretion of phosphate and calcium in rats (16 h overnight urine); format: in vivo, rat; settings: rats, oral gavage, 16 h post-dose
Human NHE3 = molecular target: T1, Human NHE3 (Homo sapiens, UniProt P48764); assay: Cell-based NHE3 activity under prompt conditions (OK cells, BCECF pH recovery), human NHE3; settings: prompt conditions
T1 construct: expressed in transfected cells; host or cells: Opossum kidney (OK) cells (ATCC), electroporation
T1 sequence (P48764 26-834): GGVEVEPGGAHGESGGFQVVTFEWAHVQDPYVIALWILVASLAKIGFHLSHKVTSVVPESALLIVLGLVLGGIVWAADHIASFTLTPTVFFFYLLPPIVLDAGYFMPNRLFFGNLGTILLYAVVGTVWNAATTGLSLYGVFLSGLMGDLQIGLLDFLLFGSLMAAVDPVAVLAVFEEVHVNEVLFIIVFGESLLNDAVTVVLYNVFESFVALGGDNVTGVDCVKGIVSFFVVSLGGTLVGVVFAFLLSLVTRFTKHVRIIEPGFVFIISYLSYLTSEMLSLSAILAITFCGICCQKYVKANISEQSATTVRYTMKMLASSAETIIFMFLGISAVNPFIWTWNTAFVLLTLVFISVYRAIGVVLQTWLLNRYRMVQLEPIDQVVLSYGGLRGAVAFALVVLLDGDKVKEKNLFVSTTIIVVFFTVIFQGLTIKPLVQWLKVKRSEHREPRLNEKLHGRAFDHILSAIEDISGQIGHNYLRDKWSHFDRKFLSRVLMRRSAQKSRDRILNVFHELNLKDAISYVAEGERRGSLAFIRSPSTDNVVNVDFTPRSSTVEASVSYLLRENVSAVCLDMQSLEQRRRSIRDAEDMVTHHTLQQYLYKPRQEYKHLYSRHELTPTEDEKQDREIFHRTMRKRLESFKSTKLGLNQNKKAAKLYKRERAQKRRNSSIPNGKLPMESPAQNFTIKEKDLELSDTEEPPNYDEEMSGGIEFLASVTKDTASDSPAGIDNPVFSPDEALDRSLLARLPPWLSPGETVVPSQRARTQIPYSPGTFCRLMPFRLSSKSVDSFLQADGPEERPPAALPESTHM
Outline: (§1)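 Fluorometric NHE3 antiport assay in opossum kidney cells carrying rat or human NHE3, using BCECF pH recovery after NH4Cl-prepulse acid loading. pIC50 values derive from initial rates averaged across at least two replicates.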

Rat NHE3 = molecular target: T2, Rat NHE3 (Rattus norvegicus, UniProt P26433); assay: Cell-based NHE3 activity under prompt conditions (OK cells, BCECF pH recovery), rat NHE3; settings: prompt conditions
T2 construct: expressed in transfected cells; host or cells: Opossum kidney (OK) cells (ATCC), electroporation
T2 sequence (P26433 29-831): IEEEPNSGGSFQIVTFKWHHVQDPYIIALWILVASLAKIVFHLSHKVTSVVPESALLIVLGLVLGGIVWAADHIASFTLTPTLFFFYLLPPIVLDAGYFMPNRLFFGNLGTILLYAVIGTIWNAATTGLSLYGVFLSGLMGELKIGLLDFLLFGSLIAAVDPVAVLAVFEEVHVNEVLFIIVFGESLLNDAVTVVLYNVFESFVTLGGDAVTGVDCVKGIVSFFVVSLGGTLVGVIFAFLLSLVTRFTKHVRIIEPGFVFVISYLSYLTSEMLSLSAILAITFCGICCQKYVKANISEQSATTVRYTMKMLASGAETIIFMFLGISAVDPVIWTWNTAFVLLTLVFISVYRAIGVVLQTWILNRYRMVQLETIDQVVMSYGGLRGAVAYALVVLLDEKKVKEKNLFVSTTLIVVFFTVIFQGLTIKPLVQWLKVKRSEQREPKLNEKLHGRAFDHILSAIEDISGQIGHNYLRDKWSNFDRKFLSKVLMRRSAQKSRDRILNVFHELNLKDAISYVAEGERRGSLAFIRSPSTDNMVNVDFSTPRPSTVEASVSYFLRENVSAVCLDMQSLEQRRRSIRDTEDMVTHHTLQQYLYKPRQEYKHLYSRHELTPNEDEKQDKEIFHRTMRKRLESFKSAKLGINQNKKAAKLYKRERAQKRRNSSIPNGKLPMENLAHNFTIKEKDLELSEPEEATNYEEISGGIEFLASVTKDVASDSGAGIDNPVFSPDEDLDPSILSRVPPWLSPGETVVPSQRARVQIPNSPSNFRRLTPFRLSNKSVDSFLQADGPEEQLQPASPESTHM
Outline: as §1

[2] = tested on: absorption of sodium from the intestinal lumen; assay: Fecal form score (FFS) 16 h after oral dose in rats; format: in vivo, rat; settings: oral gavage, 16 h post-dose, scale 1-5
Outline: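 Fecal form was scored at 16 h post-dose on a 1–5 wetness scale (normal pellet to liquid stream), with two independent observations averaged across six rats per group. Animals were 8-week-old Sprague-Dawley rats given test compound or water orally in the late afternoon and kept in metabolic cages.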

[3] = tested on: absorption of sodium from the intestinal lumen; assay: Inhibition of intestinal sodium absorption: urinary sodium (uNa) 16 h after single oral dose in rats; format: in vivo, rat; settings: oral gavage, 16 h post-dose
Outline: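 Urinary sodium mass over the 16 h after one oral gavage dose, measured by cation-exchange ion chromatography, reported as percent of water-vehicle group; ANOVA plus Dunnett's post hoc test. Groups of six 8-week-old Sprague-Dawley rats, housed individually in metabolic cages post-dose, fed and watered freely.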

| SMILES | Urine P % of control ([1]; dose 10 mg/kg) [%] | Prompt Human NHE3 pIC50 (Human NHE3) | Prompt Rat NHE3 pIC50 (Rat NHE3) | Fecal Form Score average ([2]; dose 10 mg/kg) | Urine Na % of control ([3]; dose 10 mg/kg) [%] | Urine P % of control ([1]; dose 1 mg/kg) [%] | Urine P % of control ([1]; dose 3 mg/kg) [%] | Fecal Form Score average ([2]; dose 1 mg/kg) | Fecal Form Score average ([2]; dose 3 mg/kg) | Urine Na % of control ([3]; dose 1 mg/kg) [%] | Urine Na % of control ([3]; dose 3 mg/kg) [%] | further results |
| --- | --- | --- | --- | --- | --- | --- | --- | --- | --- | --- | --- | --- |
| CN1Cc2c(Cl)cc(Cl)cc2[C@H](c2cccc(S(=O)(=O)NCCOCCOCCOCCNC(=O)CN(CCN(CC(=O)O)CC(=O)NCCOCCOCCOCCNS(=O)(=O)c3cccc([C@@H]4CN(C)Cc5c(Cl)cc(Cl)cc54)c3)CC(=O)O)c2)C1 [compound 67] | 67 | 8.70 | 8.00 | 2 | 4 | – | – | – | – | – | – | – |
| CN1Cc2c(Cl)cc(Cl)cc2[C@H](c2cccc(S(=O)(=O)NCCOCCOCCNC(=O)CCN(CCC(=O)NCCOCCOCCNS(=O)(=O)c3cccc([C@@H]4CN(C)Cc5c(Cl)cc(Cl)cc54)c3)CCC(=O)NCCOCCOCCNS(=O)(=O)c3cccc([C@@H]4CN(C)Cc5c(Cl)cc(Cl)cc54)c3)c2)C1 [compound 80] | 21 | 6.93 | 5.50 | 3 | 9 | 70 | 39 | 1 | 2 | 66 | 55 | – |
| CN1Cc2c(Cl)cc(Cl)cc2[C@H](c2cccc(S(=O)(=O)NCCOCCOCCNC(=O)CCC(CCC(=O)NCCOCCOCCNS(=O)(=O)c3cccc([C@@H]4CN(C)Cc5c(Cl)cc(Cl)cc54)c3)(CCC(=O)NCCOCCOCCNS(=O)(=O)c3cccc([C@@H]4CN(C)Cc5c(Cl)cc(Cl)cc54)c3)N(C)C)c2)C1 [compound 124] | – | 7.50 | – | – | – | 154 | 61 | 1 | 2 | 69 | 22 | IC50 (Rat NHE3; read-out: Prompt Rat NHE3 pIC50 (converted)): 67.6 nM |
| CN1Cc2c(Cl)cc(Cl)cc2[C@H](c2cccc(S(=O)(=O)NCCOCCOCCOCCNC(=O)CC(CC(=O)NCCOCCOCCOCCNS(=O)(=O)c3cccc([C@@H]4CN(C)Cc5c(Cl)cc(Cl)cc54)c3)C(=O)NCCOCCOCCOCCNS(=O)(=O)c3cccc([C@@H]4CN(C)Cc5c(Cl)cc(Cl)cc54)c3)c2)C1 [compound 84] | – | 7.70 | 7.50 | – | – | – | – | – | – | – | – | Urine P % of control ([1]; dose 8 mg/kg): 47%; Fecal Form Score average ([2]; dose 8 mg/kg): 3; Urine Na % of control ([3]; dose 8 mg/kg): 7% |
| C/C(=C\c1cc(F)c(Oc2ccc(S(=O)(=O)NCCOCCOCCOCCNC(=O)NCCOCCOCCNC(=O)NCCOCCOCCOCCNS(=O)(=O)c3ccc(Oc4c(F)cc(/C=C(\C)C(=O)N=C(N)N)cc4F)cc3)cc2)c(F)c1)C(=O)N=C(N)N [compound 14] | 59 | 7.60 | 7.00 | 1 | 51 | – | – | – | – | – | – | – |
| CN1Cc2c(Cl)cc(Cl)cc2[C@H](c2cccc(S(=O)(=O)NCCOCCOCCNC(=O)CCC(=O)NCCOCCOCCNS(=O)(=O)c3ccc(O[C@H]4c5ccccc5C[C@@H]4N4CCCCC4)cc3)c2)C1 [compound 96] | 94 | 8.30 | 7.50 | 1 | 33 | – | – | – | – | – | – | – |
| CN1Cc2c(Cl)cc(Cl)cc2[C@H](c2cccc(S(=O)(=O)NCCOCCOCCNC(=O)NCCCCNC(=O)NCCOCCOCCNS(=O)(=O)c3cccc([C@@H]4CN(C)Cc5c(Cl)cc(Cl)cc54)c3)c2)C1 [compound 180] | – | 8.30 | 8.03 | – | – | 69 | 38 | 3 | 4 | 15 | 53 | Urine P % of control ([1]; dose 0.03 mg/kg): 80%; Urine P % of control ([1]; dose 0.1 mg/kg): 82%; Urine P % of control ([1]; dose 0.3 mg/kg): 75%; Fecal Form Score average ([2]; dose 0.03 mg/kg): 1; Fecal Form Score average ([2]; dose 0.1 mg/kg): 1; Fecal Form Score average ([2]; dose 0.3 mg/kg): 3; Urine Na % of control ([3]; dose 0.03 mg/kg): 67%; Urine Na % of control ([3]; dose 0.1 mg/kg): 45%; Urine Na % of control ([3]; dose 0.3 mg/kg): 33% |
| CN1Cc2c(Cl)cc(Cl)cc2[C@H](c2cccc(S(=O)(=O)NCCOCCOCCNC(=O)NCCN(CCNC(=O)NCCOCCOCCNS(=O)(=O)c3cccc([C@@H]4CN(C)Cc5c(Cl)cc(Cl)cc54)c3)C(=O)CCOCCOCCOCCOCCOCCOCCOCCOCCOCCC(=O)N(CCNC(=O)NCCOCCOCCNS(=O)(=O)c3cccc([C@@H]4CN(C)Cc5c(Cl)cc(Cl)cc54)c3)CCNC(=O)NCCOCCOCCNS(=O)(=O)c3cccc([C@@H]4CN(C)Cc5c(Cl)cc(Cl)cc54)c3)c2)C1 [compound 95] | 111 | 7.00 | 6.60 | 2 | 38 | – | – | – | – | – | – | – |
| CN(CC(=O)NCCOCCOCCNC(=O)NCCOCCOCCOCCN1CCN(c2ccc(-c3nc(N=C(N)N)nc4ccc(Cl)cc34)cc2)CC1)CC(=O)NCCOCCOCCNC(=O)NCCOCCOCCOCCN1CCN(c2ccc(-c3nc(N=C(N)N)nc4ccc(Cl)cc34)cc2)CC1 [compound 45] | 109 | 7.90 | 7.50 | 1 | 97 | – | – | – | – | – | – | – |
| CC(=O)C(CCC(=O)NCCOCCOCCNS(=O)(=O)c1cccc([C@@H]2CN(C)Cc3c(Cl)cc(Cl)cc32)c1)(CCC(=O)NCCOCCOCCNS(=O)(=O)c1cccc([C@@H]2CN(C)Cc3c(Cl)cc(Cl)cc32)c1)CCC(=O)NCCOCCOCCNS(=O)(=O)c1cccc([C@@H]2CN(C)Cc3c(Cl)cc(Cl)cc32)c1 [compound 169] | – | 6.20 | 6.50 | – | – | – | 64 | – | 2 | – | 42 | – |
| CN1Cc2c(Cl)cc(Cl)cc2[C@H](c2cccc(S(=O)(=O)NCCOCCOCCOCCNC(=O)c3cc(C(=O)NCCOCCOCCOCCNS(=O)(=O)c4cccc([C@@H]5CN(C)Cc6c(Cl)cc(Cl)cc65)c4)cc(C(=O)NCCOCCOCCOCCNS(=O)(=O)c4cccc([C@@H]5CN(C)Cc6c(Cl)cc(Cl)cc65)c4)c3)c2)C1 [compound 56] | 50 | 7.00 | 6.90 | 2 | 15 | – | – | – | – | – | – | – |
| NCCOCCOCCN1CCN(c2cccc(-c3nc(N=C(N)N)nc4ccc(Cl)cc34)c2)CC1 [compound 16] | – | 7.80 | 6.70 | – | – | – | – | – | – | – | – | Urine P % of control ([1]; dose 30 mg/kg): 123%; Fecal Form Score average ([2]; dose 30 mg/kg): 1; Urine Na % of control ([3]; dose 30 mg/kg): 87% |
| CN1Cc2c(Cl)cc(Cl)cc2[C@H](c2cccc(S(=O)(=O)NCCOCCOCCNC(=O)CCC(N)(CCC(=O)NCCOCCOCCNS(=O)(=O)c3cccc([C@@H]4CN(C)Cc5c(Cl)cc(Cl)cc54)c3)CCC(=O)NCCOCCOCCNS(=O)(=O)c3cccc([C@@H]4CN(C)Cc5c(Cl)cc(Cl)cc54)c3)c2)C1 [compound 88] | 69 | 7.93 | 7.07 | 5 | 21 | 77 | 75 | 1 | 3 | 84 | 22 | – |
